{"source": "ChEMBL document CHEMBL1159233", "about": "“Antitumor agents, 154. Cytotoxic and antimitotic flavonols from Polanisia dodecandra” (J Nat Prod, 1995)", "key": {"SR": {"test_system": "SR", "assay": "Growth inhibition of human SR cells", "type": "functional"}, "NCI-H460": {"test_system": "NCI-H460", "assay": "Growth inhibition of human NCI-H460 cells", "type": "functional"}, "NCI-H522": {"test_system": "NCI-H522", "assay": "Growth inhibition of human NCI-H522 cells", "type": "functional"}, "HOP-62": {"test_system": "HOP-62", "assay": "Growth inhibition of human HOP62 cells", "type": "functional"}, "[1]": {"assay": "Inhibition of tubulin polymerization"}, "[2]": {"assay": "Displacement of [3H]colchicine from tubulin at 50 uM"}, "[3]": {"assay": "Displacement of [3H]colchicine from tubulin at 5 uM"}, "[4]": {"assay": "Cytotoxicity against human PRMI7951 cells", "type": "functional", "details": "read-out: ED50 (the source's name)"}, "TE-671": {"test_system": "TE-671", "assay": "Cytotoxicity against human TE671 cells", "type": "functional", "details": "read-out: ED50 (the source's name)"}, "U-251": {"test_system": "U-251", "assay": "Growth inhibition of human U251 cells", "type": "functional"}, "NCI-H226": {"test_system": "NCI-H226", "assay": "Growth inhibition of human NCI-H226 cells", "type": "functional"}, "[5]": {"assay": "Growth inhibition of human DMS144 cells", "type": "functional"}, "A549": {"test_system": "A549", "assay": "Cytotoxicity against human A549 cells", "type": "functional"}, "SF-539": {"test_system": "SF-539", "assay": "Growth inhibition of human SF539 cells", "type": "functional"}, "HCT-8": {"test_system": "HCT-8", "assay": "Cytotoxicity against human HCT8 cells", "type": "functional"}, "HCT-116": {"test_system": "HCT-116", "assay": "Growth inhibition of human HCT116 cells", "type": "functional"}, "SK-OV-3": {"test_system": "SK-OV-3", "assay": "Growth inhibition of human SKOV3 cells", "type": "functional"}, "UO-31": {"test_system": "UO-31", "assay": "Growth inhibition of human UO31 cells", "type": "functional"}, "P388": {"test_system": "P388", "assay": "Cytotoxicity against mouse P388 cells", "type": "functional", "details": "read-out: ED50 (the source's name)"}, "KB": {"test_system": "KB", "assay": "Cytotoxicity against human KB cells", "type": "functional", "details": "read-out: ED50 (the source's name)"}, "SNB-75": {"test_system": "SNB-75", "assay": "Growth inhibition of human SNB75 cells", "type": "functional"}, "HL-60(TB)": {"test_system": "HL-60(TB)", "assay": "Growth inhibition of human HL-60(TB) cells", "type": "functional"}, "SF-268": {"test_system": "SF-268", "assay": "Growth inhibition of human SF268 cells", "type": "functional"}, "SK-MEL-5": {"test_system": "SK-MEL-5", "assay": "Growth inhibition of human SK-MEL-5 cells", "type": "functional"}, "OVCAR-3": {"test_system": "OVCAR-3", "assay": "Growth inhibition of human OVCAR-3 cells", "type": "functional"}, "[6]": {"details": "read-out: ED50 (the source's name)"}}, "note": "The source made the active and inactive calls. No cut-off for these calls is given here.", "data": [{"smiles": "COc1ccc(-c2oc3c(OC)c(OC)c(OC)c(O)c3c(=O)c2OC)cc1O", "values": [{"measurement": "GI50", "setting": "SR", "value": "< 10", "unit": "nM"}, {"measurement": "TGI", "setting": "SR; read-out: pTGI (converted)", "value": 112, "unit": "nM"}, {"measurement": "GI50", "setting": "NCI-H460", "value": "< 10", "unit": "nM"}, {"measurement": "TGI", "setting": "NCI-H460; read-out: pTGI (converted)", "value": 138, "unit": "nM"}, {"measurement": "GI50", "setting": "NCI-H522", "value": "< 10", "unit": "nM"}, {"measurement": "TGI", "setting": "NCI-H522; read-out: pTGI", "value": "< 10", "unit": "nM"}, {"measurement": "GI50", "setting": "HOP-62", "value": 47.9, "unit": "nM"}, {"measurement": "TGI", "setting": "HOP-62; read-out: pTGI (converted)", "value": 4790, "unit": "nM"}, {"measurement": "IC50", "setting": "[1]", "value": 830, "unit": "nM"}, {"measurement": "Activity", "setting": "[2]", "value": 89, "unit": "%"}, {"measurement": "Activity", "setting": "[3]", "value": 59, "unit": "%"}, {"measurement": "EC50", "setting": "[4]", "value": 0.55, "unit": "µg/mL"}, {"measurement": "EC50", "setting": "TE-671", "value": 0.069, "unit": "µg/mL"}, {"measurement": "GI50", "setting": "U-251", "value": "< 10", "unit": "nM"}, {"measurement": "TGI", "setting": "U-251; read-out: pTGI (converted)", "value": 229, "unit": "nM"}, {"measurement": "GI50", "setting": "NCI-H226", "value": 61.7, "unit": "nM"}, {"measurement": "TGI", "setting": "NCI-H226; read-out: pTGI (converted)", "value": 363, "unit": "nM"}, {"measurement": "GI50", "setting": "[5]", "value": "< 10", "unit": "nM"}, {"measurement": "TGI", "setting": "[5]; read-out: pTGI", "value": "< 10", "unit": "nM"}, {"measurement": "EC50", "setting": "A549; [6]", "value": 0.6, "unit": "µg/mL"}, {"measurement": "GI50", "setting": "SF-539", "value": "< 10", "unit": "nM"}, {"measurement": "TGI", "setting": "SF-539; read-out: pTGI", "value": "< 10", "unit": "nM"}, {"measurement": "EC50", "setting": "HCT-8; [6]", "value": 4.4, "unit": "µg/mL"}, {"measurement": "GI50", "setting": "HCT-116", "value": "< 10", "unit": "nM"}, {"measurement": "TGI", "setting": "HCT-116; read-out: pTGI (converted)", "value": 123, "unit": "nM"}, {"measurement": "GI50", "setting": "SK-OV-3", "value": "< 10", "unit": "nM"}, {"measurement": "TGI", "setting": "SK-OV-3; read-out: pTGI (converted)", "value": 417, "unit": "nM"}, {"measurement": "GI50", "setting": "UO-31", "value": "< 10", "unit": "nM"}, {"measurement": "TGI", "setting": "UO-31; read-out: pTGI (converted)", "value": 5750, "unit": "nM"}, {"measurement": "EC50", "setting": "P388", "value": 0.055, "unit": "µg/mL"}, {"measurement": "EC50", "setting": "KB", "value": 0.045, "unit": "µg/mL"}, {"measurement": "GI50", "setting": "SNB-75", "value": "< 10", "unit": "nM"}, {"measurement": "TGI", "setting": "SNB-75; read-out: pTGI", "value": "< 10", "unit": "nM"}, {"measurement": "GI50", "setting": "HL-60(TB)", "value": "< 10", "unit": "nM"}, {"measurement": "TGI", "setting": "HL-60(TB); read-out: pTGI", "value": "< 10", "unit": "nM"}, {"measurement": "GI50", "setting": "SF-268", "value": "< 10", "unit": "nM"}, {"measurement": "TGI", "setting": "SF-268; read-out: pTGI (converted)", "value": 2820, "unit": "nM"}, {"measurement": "GI50", "setting": "SK-MEL-5", "value": "< 10", "unit": "nM"}, {"measurement": "TGI", "setting": "SK-MEL-5; read-out: pTGI (converted)", "value": 1000, "unit": "nM"}, {"measurement": "GI50", "setting": "OVCAR-3", "value": "< 10", "unit": "nM"}, {"measurement": "TGI", "setting": "OVCAR-3; read-out: pTGI", "value": "< 10", "unit": "nM"}]}, {"smiles": "COc1cc(-c2oc3c(OC)c(OC)c(OC)c(O)c3c(=O)c2OC)ccc1O", "values": [{"measurement": "EC50", "setting": "[4]", "value": 5.93, "unit": "µg/mL"}, {"measurement": "EC50", "setting": "TE-671", "value": 0.98, "unit": "µg/mL"}, {"measurement": "Activity", "setting": "A549", "value": "inactive"}, {"measurement": "Activity", "setting": "HCT-8", "value": "inactive"}, {"measurement": "EC50", "setting": "P388", "value": 6.52, "unit": "µg/mL"}, {"measurement": "EC50", "setting": "KB", "value": 8.38, "unit": "µg/mL"}]}, {"smiles": "COc1ccc(-c2oc3cc(O)c(OC)c(O)c3c(=O)c2OC)cc1O", "note": "[CENTAUREIDIN]", "values": [{"measurement": "IC50", "setting": "[1]", "value": 2000, "unit": "nM"}, {"measurement": "Activity", "setting": "[2]", "value": 76, "unit": "%"}, {"measurement": "Activity", "setting": "[3]", "value": 35, "unit": "%"}]}, {"smiles": "COc1cc([C@@H]2c3cc4c(cc3[C@H](O)[C@H]3COC(=O)[C@H]23)OCO4)cc(OC)c1OC", "values": [{"measurement": "Activity", "setting": "[3]", "value": 82, "unit": "%"}]}]}
